Data on eight compounds can be found in patent US4102917A, “Substituted phenyl naphthalenesulfonic acids” (American Cyanamid Company, priority 1977, dated 1978).

Counter-ions that a name gives are not always drawn.

One assay has as its system complement system. The following applies: literature; cited from earlier work.
The subject of assay [1] is hereditary angioneurotic edema. The conditions noted are these: literature; cited from earlier work.
A further assay has as its system human C1. Put plainly: Test, Code 026 (C1 inhibitor). The conditions noted are these: activity in wells, two-fold serial dilution assay; higher well number indicates higher activity. The format is biochemical. An excerpt: (§1) An active inhibitor protects C2 from C1 and C4; (ii) Test, Code 035 (C3-C9 inhibitor) -- This test determines the ability of the late components of human complement (C3-C9) to lyse EAC 142 in the presence of appropriate dilutions of the test compound. An active inhibitor protects EAC 142 from lysis by human C3-C9; (iii) Test, Code 036 (C-Shunt inhibitor) -- In this test human erythrocytes rendered fragile are lysed in autologous serum via the shunt pathway activated by cobra venom factor in the presence of appropriate dilutions of the test compound. Inhibition of the shunt pathway results in failure of lysis; (iv) Forssman Vasculitis Test -- Here, the well known complement dependent lesion, Forssman vasculitis, is produced in guinea pigs by intradermal injection of rabbit anti-Forssman antiserum. […]

A further assay deals with shunt pathway. In words: Test, Code 036 (C-Shunt inhibitor), lysis of human erythrocytes via shunt pathway activated by cobra venom factor. Format: cell-based. The following applies: activity in wells, two-fold serial dilution assay; higher well number indicates higher activity.
Excerpt: as §1

The test system of assay [2] is late components of human complement (C3-C9). Put plainly: Test, Code 035 (C3-C9 inhibitor), lysis of EAC 142. Format: cell-based. The following applies: activity in wells, two-fold serial dilution assay; higher well number indicates higher activity; N=Negative.
Excerpt: as §1

The test system of another assay is human serum. The conditions noted are these: in vitro and in vivo, literature; cited from earlier work.
The next assay has as its system whole complement. Put plainly: Complement Level Reduction Test (in vivo activity, guinea pig). The following applies: 200 mg/kg. An excerpt: An active inhibitor protects C2 from C1 and C4; (ii) Test, Code 035 (C3-C9 inhibitor) -- This test determines the ability of the late components of human complement (C3-C9) to lyse EAC 142 in the presence of appropriate dilutions of the test compound. An active inhibitor protects EAC 142 from lysis by human C3-C9; (iii) Test, Code 036 (C-Shunt inhibitor) -- In this test human erythrocytes rendered fragile are lysed in autologous serum via the shunt pathway activated by cobra venom factor in the presence of appropriate dilutions of the test compound. Inhibition of the shunt pathway results in failure of lysis; (iv) Forssman Vasculitis Test -- Here, the well known complement dependent lesion, Forssman vasculitis, is produced in guinea pigs by intradermal injection of rabbit anti-Forssman antiserum. The lesion is measured in terms of diameter, edema and hemorrhage and the extent to which a combined index of these is inhibited by prior intraperitoneal injection of the test compound at 200 mg/kg is then reported, unless otherwise stated; (v) Forssman Shock Test -- Lethal shock is produced in guinea pigs by an i.v. injection of anti-Forssman antiserum and the harmonic mean death time of treated guinea pigs is compared with that of simultaneous controls; (vi) Complement Level Reduction Test -- In this test, the above dosed guinea pigs, or others, are bled for serum and the complement level is determined in undiluted serum by the capillary tube method of U.S. Pat. No. 3,876,376 and compared to undosed control guinea pigs; and (vii) Cap 50 Test -- Here, appropriate amounts of the test compound are added to a pool of guinea pig serum in vitro, after which the undiluted serum capillary tube assay referred to above is run. The concentration of compound inhibiting 50 % is reported.
With reference to Table I, guinea pigs weighing about 300 g were dosed intravenously (i.v.) or intraperitoneally (i.p.) with 200 mg/kg of the test compound dissolved in saline and adjusted to pH 7-8. […] The serum was tested for whole complement using the capillary tube assay. Percent inhibition was calculated by comparison with simultaneous controls. The results appear in Table I together with results of tests, code 026, 035, 036, Cap 50, % inhibition and Forssman shock.

heparin: the “anticomplementary effect / complement inhibition” value in the assay with complement system was “reported to have an anticomplementary effect”.
`NC[C@H]1CC[C@H](C(=O)O)CC1` [tranexamic acid]: the “use in the treatment of hereditary angioneurotic edema” value (“use in the treatment” for short) in assay [1] was “used with success in the treatment of hereditary angioneurotic edema”.
Consider `O=C(O)c1cc(NC(=O)c2cc(NC(=S)Nc3cc(S(=O)(=O)O)cc4cc(S(=O)(=O)O)cc(S(=O)(=O)O)c34)cc(C(=O)Nc3cc(C(=O)O)cc(C(=O)O)c3)c2)cc(C(=O)O)c1` [5,5'-{{5-[2-Thio-3-(3,6,8-trisulfo-1-naphthyl)ureido]-1,3-phenylene}bis(carbonylimino)}diisophthalic acid heptasodium salt], for which, in the assay with human C1, the “C1 026 Wells” value is on record as “+5 Wells”. Also, in the assay with shunt pathway, the “Shunt Inhibition 036 Wells” value is listed as “+1 Wells”. The “C-Late 035 Wells” value in assay [2] is reported as “N”.
As for `NCCCCCC(=O)O` [epsilon-aminocaproic acid], in assay [1], the “use in the treatment” value is recorded as “used with success in the treatment of hereditary angioneurotic edema”.
For pentosan-poly-sulfoester, the “anticomplementary activity, reduction in the total hemolytic complement activity” value in the assay on human serum is “anticomplementary activity on human serum both in vitro and in vivo”.
As for `O=C(Nc1cc(S(=O)(=O)[O-])cc2cc(S(=O)(=O)[O-])cc(S(=O)(=O)[O-])c12)c1cc(NC(=S)Nc2cc(S(=O)(=O)[O-])cc3cc(S(=O)(=O)[O-])cc(S(=O)(=O)[O-])c23)cc(C(=O)Nc2cc(S(=O)(=O)[O-])cc3cc(S(=O)(=O)[O-])cc(S(=O)(=O)[O-])c23)c1.[Na+].[Na+].[Na+].[Na+].[Na+].[Na+].[Na+].[Na+].[Na+]` [8-{3-[3,5-Bis(3,6,8-trisulfo-1-naphthylcarbamoyl)phenyl] -2-thioureido}-1,3,6-naphthalenetrisulfonic acid nonasodium salt], in the assay on whole complement (i.p., 30 min), the “In Vivo Activity (Guinea Pig) % Inhibition, Intraperitoneal, 30 min” value is reported as -50%. For the same compound, the “In Vivo Activity (Guinea Pig) % Inhibition, Intraperitoneal, 60 min” value in the assay on whole complement (i.p., 60 min) was -57%. The “In Vivo Activity (Guinea Pig) % Inhibition, Intraperitoneal, 120 min” value in the assay with whole complement (i.p., 120 min) is listed as -74%. In the assay on whole complement (i.v., 2 min), the “In Vivo Activity (Guinea Pig) % Inhibition, Intravenous, 2 min” value is listed as -97%. For the same compound, the “In Vivo Activity (Guinea Pig) % Inhibition, Intravenous, 30 min” value in the assay with whole complement (i.v., 30 min) was -79%. In addition, the “In Vivo Activity (Guinea Pig) % Inhibition, Intravenous, 120 min” value with whole complement (i.v., 120 min) was -58%. Also, in assay [2], the “C-Late 035 Wells” value is “+1 Wells”.
For the compound `Cc1ccc(C(=O)Nc2ccc(S(=O)(=O)O)c3cc(S(=O)(=O)O)cc(S(=O)(=O)O)c23)cc1NC(=O)c1cccc(NC(=O)Nc2cccc(C(=O)Nc3cc(C(=O)Nc4ccc(S(=O)(=O)O)c5cc(S(=O)(=O)O)cc(S(=O)(=O)O)c45)ccc3C)c2)c1` [Suramin], the “use in the treatment” value in assay [1] is recorded as “used with success in the treatment of hereditary angioneurotic edema”. Also, the “anticomplementary effect / complement inhibition” value in the assay with complement system is “competitive inhibitor of the complement system”.
With `Nc1ccc2cc(S(=O)(=O)O)cc(O)c2c1N=Nc1ccc(NC(=O)Nc2ccc(N=Nc3c(N)ccc4cc(S(=O)(=O)O)cc(O)c34)c(S(=O)(=O)O)c2)cc1S(=O)(=O)O` [chlorazol fast pink, 3,3'-ureylenebis-[6-(2-amino-8-hydroxy-6-sulfo-1-naphthylazo)]benzenesulfonic acid, tetrasodium salt], the “anticomplementary effect / complement inhibition” value in the assay with complement system was “reported to have an anticomplementary effect”.
